Laboratory results published in patent US11912650B2, “Bakuchiol derivatives, pharmaceutically acceptable salts thereof, and preparation method and use of the same” (priority 2020, dated 2024).
Values after ≈ are worked out from the molar mass of the structure shown. Like-named read-outs stand apart in the source and are kept apart here.

Tests used:
MRSA NCTC10442 = assay: Antibacterial activity assay (broth dilution MIC); type: cell-based, methicillin-resistant Staphylococcus aureus; conditions: Staphylococcus aureus, 37° C., 24 h, compounds 38, 44-45, 58-61, 63-64 with 0.05% Tween 80
Description: (§1) Antibacterial activity assay. The antibacterial activities of all the compounds were determined according to a broth dilution method specified in Clinical and Laboratory Standards Institute (CLSI) guidelines. Bacterial cells were inoculated on a Mueller-Hinton agar (MHA) plate for overnight culture, and the concentration of the bacterial cells was adjusted to about 1×10^6 colony-forming units (CFU)/mL with phosphate buffered saline (PBS). First, a 1000 μg/mL stock solution (a final concentration of dimethyl sulfoxide (DMSO) was ≤2%) was prepared by dissolving a sample in DMSO/H2O. Then, the stock solution was diluted with Mueller-Hinton Broth (MHB) to an initial concentration of 100 μg/mL, and the sample solution (100 μL) was subjected to two-fold gradient dilution with MHB in a 96-well plate, to obtain 100 μg/mL to 0.78 μg/mL serial dilutions. Then, a bacterial suspension (100 μL) was added to each well of the 96-well plate and mixed with the test sample solution (100 μL). Among them, test systems for compounds 38, 44-45, 58-61 and 63-64 contained 0.05% of Tween 80. Finally, the 96-well plate was incubated at 37° C. for 24 hours. Absorbances at 600 nm at 0 and 24 h were measured. An minimum inhibitory concentration (MIC) value was defined as the lowest concentration where no visible bacterial growth occurred. All experiments were carried out in at least two duplicates, and biological repeatability could be achieved.

MRSA N315 = assay: Antibacterial activity assay (broth dilution MIC); type: cell-based, methicillin-resistant Staphylococcus aureus; conditions: Staphylococcus aureus, 37° C., 24 h, compounds 38, 44-45, 58-61, 63-64 with 0.05% Tween 80
Description: as §1

Gram-positive bacteria = assay: Antibacterial activity against Gram-positive bacteria (MIC summary); type: cell-based; conditions: 24 h, read-out: minimum inhibitory concentration (MIC) against Gram-positive bacteria
Description: as §1

Gram-negative bacteria = assay: Antibacterial activity against Gram-negative bacteria (MIC summary); type: cell-based; conditions: 24 h; summary of tables 1 and 2
Description: as §1

S. aureus ATCC29213 = assay: Antibacterial activity assay (broth dilution MIC); type: cell-based; conditions: Staphylococcus aureus, 37° C., 24 h, compounds 38, 44-45, 58-61, 63-64 with 0.05% Tween 80
Description: as §1

E. coli ATCC25922 = assay: Antibacterial activity assay (broth dilution MIC); type: cell-based; conditions: Escherichia coli, 37° C., 24 h, compounds 38, 44-45, 58-61, 63-64 with 0.05% Tween 80
Description: as §1

Structure (SMILES): C=C[C@@](C)(/C=C/c1ccc(OCCCCN(C)CCCN(C)C)cc1)CCC=C(C)C [Compound 26]
- MIC (MRSA NCTC10442): 3.12 µg/mL (≈ 7.32 µM)
- MIC (MRSA N315): 1.56 µg/mL (≈ 3.66 µM)
- MIC (Gram-positive bacteria; summary of tables 1 and 2): 0.39 to 3.12 µg/mL (≈ 0.914 to 7.32 µM)
- MIC (Gram-negative bacteria): 1.56 to 3.12 µg/mL (≈ 3.66 to 7.32 µM)
- MIC (S. aureus ATCC29213): 1.56 µg/mL (≈ 3.66 µM)
- MIC (E. coli ATCC25922): 3.12 µg/mL (≈ 7.32 µM)

Structure (SMILES): C=C[C@@](C)(/C=C/c1ccc(OCCCCN(C)CCCN(C)CCCNC)cc1)CCC=C(C)C [Compound 27]
- MIC (MRSA NCTC10442): 1.56 µg/mL (≈ 3.22 µM)
- MIC (MRSA N315): 0.78 µg/mL (≈ 1.61 µM)
- MIC (Gram-positive bacteria; summary of tables 1 and 2): 0.39 to 3.12 µg/mL (≈ 0.806 to 6.46 µM)
- MIC (Gram-negative bacteria): 1.56 to 3.12 µg/mL (≈ 3.22 to 6.46 µM)
- MIC (S. aureus ATCC29213): 1.56 µg/mL (≈ 3.22 µM)
- MIC (E. coli ATCC25922): 1.56 µg/mL (≈ 3.22 µM)

Structure (SMILES): C=C[C@](C)(/C=C/c1ccc(OCCCCNCCN(CCN)CCN)cc1)CCC=C(C)C [Compound 29]
- MIC (MRSA NCTC10442): 0.78 µg/mL (≈ 1.71 µM)
- MIC (MRSA N315): 0.78 µg/mL (≈ 1.71 µM)
- MIC (Gram-positive bacteria; summary of tables 1 and 2): 0.39 to 3.12 µg/mL (≈ 0.854 to 6.84 µM)
- MIC (Gram-negative bacteria): 1.56 to 3.12 µg/mL (≈ 3.42 to 6.84 µM)
- MIC (S. aureus ATCC29213): 0.78 µg/mL (≈ 1.71 µM)
- MIC (E. coli ATCC25922): 3.12 µg/mL (≈ 6.84 µM)

Structure (SMILES): C=C[C@@](C)(/C=C/c1ccc(OCCCCN2CCCNCCNCCCNCC2)cc1)CCC=C(C)C [Compound 30]
- MIC (MRSA NCTC10442): 0.78 µg/mL (≈ 1.53 µM)
- MIC (MRSA N315): 0.78 µg/mL (≈ 1.53 µM)
- MIC (Gram-positive bacteria; summary of tables 1 and 2): 0.39 to 3.12 µg/mL (≈ 0.763 to 6.12 µM)
- MIC (Gram-negative bacteria): 1.56 to 3.12 µg/mL (≈ 3.05 to 6.12 µM)
- MIC (S. aureus ATCC29213): 0.78 µg/mL (≈ 1.53 µM)
- MIC (E. coli ATCC25922): 3.12 µg/mL (≈ 6.12 µM)

Structure (SMILES): C=C[C@@](C)(/C=C/c1ccc(OCCCCN2CCNCCNCCNCCNCC2)cc1)CCC=C(C)C [Compound 31]
- MIC (MRSA NCTC10442): 1.56 µg/mL (≈ 2.97 µM)
- MIC (MRSA N315): 0.78 µg/mL (≈ 1.48 µM)
- MIC (Gram-positive bacteria; summary of tables 1 and 2): 0.39 to 3.12 µg/mL (≈ 0.742 to 5.94 µM)
- MIC (S. aureus ATCC29213): 1.56 µg/mL (≈ 2.97 µM)
- MIC (E. coli ATCC25922): 6.25 µg/mL (≈ 11.9 µM)

Structure (SMILES): C=C[C@@](C)(/C=C/c1ccc(OCCCCNC(=N)N)cc1)CCC=C(C)C [Compound 35]
- MIC (MRSA NCTC10442): 3.12 µg/mL (≈ 8.46 µM)
- MIC (MRSA N315): 1.56 µg/mL (≈ 4.22 µM)
- MIC (Gram-positive bacteria; summary of tables 1 and 2): 0.39 to 3.12 µg/mL (≈ 1.06 to 8.46 µM)
- MIC (S. aureus ATCC29213): 3.12 µg/mL (≈ 8.46 µM)
- MIC (E. coli ATCC25922): 25 µg/mL (≈ 67.6 µM)

Structure (SMILES): C=C[C@](C)(/C=C/c1ccc(OCC(=O)N[C@@H](CCCNC(=N)N)C(=O)OC)cc1)CCC=C(C)C [Compound 38]
- MIC (MRSA NCTC10442): 0.78 µg/mL (≈ 1.61 µM)
- MIC (MRSA N315): 1.56 µg/mL (≈ 3.22 µM)
- MIC (Gram-positive bacteria): 0.39 to 3.12 µg/mL (≈ 0.805 to 6.45 µM)
- MIC (S. aureus ATCC29213): 0.78 µg/mL (≈ 1.61 µM)
- MIC (E. coli ATCC25922): 6.25 µg/mL (≈ 12.9 µM)

Structure (SMILES): C=C[C@](C)(/C=C/c1ccc(OCC(=O)N[C@H](CCCNC(=N)N)C(N)=O)cc1)CCC=C(C)C [Compound 39]
- MIC (MRSA NCTC10442): 3.12 µg/mL (≈ 6.65 µM)
- MIC (MRSA N315): 3.12 µg/mL (≈ 6.65 µM)
- MIC (Gram-positive bacteria): 0.39 to 3.12 µg/mL (≈ 0.83 to 6.65 µM)
- MIC (S. aureus ATCC29213): 3.12 µg/mL (≈ 6.65 µM)
- MIC (E. coli ATCC25922): 12.5 µg/mL (≈ 26.6 µM)

Structure (SMILES): C=C[C@](C)(/C=C/c1ccc(OCC(=O)N[C@@H](Cc2c[nH]cn2)C(=O)OC)cc1)CCC=C(C)C [Compound 40]
- MIC (MRSA NCTC10442): 6.25 µg/mL (≈ 13.4 µM)
- MIC (MRSA N315): 6.25 µg/mL (≈ 13.4 µM)
- MIC (S. aureus ATCC29213): 6.25 µg/mL (≈ 13.4 µM)
- MIC (E. coli ATCC25922): > 100 µg/mL
